Results: publication PMC10155618 (Beilstein Journal of Organic Chemistry, 2023)

Legend:
[1] = tested on: poly rA–poly rU (RNA, polymer) A/U; test: UV thermal melting, 260 nm; details: Na+ (sodium cacodylate, Ic = 0.05 mol dm^-3); Na cacodylate pH 7.0; negligible stabilisation; error ±0.5 °C; per base
[2] = target: T1, human DPP III (dipeptidyl peptidase III, DPPIII), inactive mutant E451A (Homo sapiens, UniProt Q9NY33, E451A); test: isothermal titration calorimetry, one set of sites, N fixed to […]; format: binding; details: read-out: log Ka (converted)
T1 construct: gene DPP3; recombinant, heterologous expression in Escherichia coli, purified according to Spoljaric et al; mono-zinc metalloexopeptidase
T1 sequence (Q9NY33 2-737 E451A): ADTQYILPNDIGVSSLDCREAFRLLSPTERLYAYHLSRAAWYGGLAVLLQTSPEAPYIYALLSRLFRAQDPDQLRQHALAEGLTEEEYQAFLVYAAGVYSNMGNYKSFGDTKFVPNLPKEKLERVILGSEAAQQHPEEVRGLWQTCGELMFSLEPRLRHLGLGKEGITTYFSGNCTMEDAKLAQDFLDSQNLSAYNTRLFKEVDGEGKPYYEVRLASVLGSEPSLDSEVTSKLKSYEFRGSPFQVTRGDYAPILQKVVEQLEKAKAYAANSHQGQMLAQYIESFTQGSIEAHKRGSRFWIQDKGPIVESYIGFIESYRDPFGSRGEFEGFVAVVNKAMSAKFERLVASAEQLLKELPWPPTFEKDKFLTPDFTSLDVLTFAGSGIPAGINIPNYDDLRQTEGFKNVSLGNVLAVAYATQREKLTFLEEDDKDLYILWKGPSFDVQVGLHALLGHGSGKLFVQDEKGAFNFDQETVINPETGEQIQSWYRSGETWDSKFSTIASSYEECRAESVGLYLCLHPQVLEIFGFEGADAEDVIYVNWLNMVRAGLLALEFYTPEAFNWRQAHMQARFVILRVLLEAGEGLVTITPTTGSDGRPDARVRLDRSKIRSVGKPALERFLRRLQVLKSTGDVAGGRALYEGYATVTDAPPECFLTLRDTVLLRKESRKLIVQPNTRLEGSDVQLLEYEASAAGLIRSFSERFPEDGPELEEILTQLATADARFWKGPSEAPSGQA

[3] = tested on: poly dAdT–poly dAdT (DNA, polymer) AT; test: fluorimetric titration, Scatchard/Global Fit; details: Na+ (sodium cacodylate, Ic = 0.05 mol dm^-3); Na cacodylate pH 7.0; compound 1–2 × 10^-6 M; n fixed 0.2; polynucleotide as phosphates; per base
[4] = tested on: poly dGdC–poly dGdC (DNA, polymer) GC; test: fluorimetric titration, Scatchard/Global Fit; details: Na+ (sodium cacodylate, Ic = 0.05 mol dm^-3); Na cacodylate pH 7.0; compound 1–2 × 10^-6 M; n fixed 0.2; polynucleotide as phosphates; per base
[5] = tested on: poly rA–poly rU (RNA, polymer) A/U; test: fluorimetric titration, Scatchard/Global Fit; details: Na+ (sodium cacodylate, Ic = 0.05 mol dm^-3); Na cacodylate pH 7.0; compound 1–2 × 10^-6 M; n fixed 0.2; polynucleotide as phosphates; per base

Compound | ΔTm [1] [°C] | Kd [2] [µM] | log Ka [3] | log Ka [4] | log Ka [5]
COC(=O)[C@H](Cc1ccc2c(c1)c(C)nc1ccccc12)NC(=O)c1ccc2ccc3cccc4ccc1c2c34 | < 0.5 | – | – | – | –
COC(=O)[C@H](Cc1ccc2c(c1)c(C)nc1ccccc12)NC(=O)CCCc1ccc2ccc3cccc4ccc1c2c34 [Phen-Py-1] | < 0.5 | 3.39 | 5.97 | 6.87 | 7.07
